Calls of active or inactive are those of the source.
Key:
Saccharomyces cerevisiae = test: Antimicrobial activity against Saccharomyces cerevisiae at 100 ug/disc measured every 24 hrs for 4 days by disc diffusion method; type: functional, organism-based
Aedes aegypti = test: Insecticidal activity against Aedes aegypti larvae at 100 ug/mL after 24 hrs; type: functional, organism-based
Botrytis cinerea = test: Antimicrobial activity against Botrytis cinerea at 100 ug/disc measured every 24 hrs for 4 days by disc diffusion method; type: functional, organism-based
Escherichia coli = test: Antimicrobial activity against Escherichia coli at 100 ug/disc measured every 24 hrs for 4 days by disc diffusion method; type: functional, organism-based
Drosophila melanogaster = test: Insecticidal activity against Drosophila melanogaster at 100 ug; type: functional, organism-based
Bacillus cereus = test: Antimicrobial activity against Bacillus cereus at 100 ug/disc measured every 24 hrs for 4 days by disc diffusion method; type: functional, organism-based
Beauveria bassiana = test: Antimicrobial activity against Beauveria bassiana ARSEF 8354 at 100 ug/disc measured every 24 hrs for 4 days by disc diffusion method; type: functional
Lactuca sativa = test: Phytotoxicity against lettuce seedling at 50 ug/mL by seedling elongation assay; type: functional, organism-based
Colletotrichum acutatum = test: Antimicrobial activity against Colletotrichum acutatum at 100 ug/disc measured every 24 hrs for 4 days by disc diffusion method; type: functional, organism-based
MCF7 = test: Antiproliferative activity against human MCF7 cells at 100 uM by XTT assay; type: functional, cell-based
Caco-2 = test: Antiproliferative activity against human Caco2 cells at 100 uM by XTT assay; type: functional, cell-based

Measured: Activity

CC[C@H](C)C[C@H](C)[C@H]1OC(=O)[C@H](Cc2ccccc2)NC(=O)/C(C)=C/[C@H](C)[C@@H](O)/C(C)=C/[C@H](C)[C@H](OC(C)=O)/C(C)=C/[C@@H]1C
not listed: MCF7 | Caco-2
inactive: all other assays above

CC[C@H](C)C[C@H](C)[C@H]1OC(=O)[C@H](Cc2ccccc2)NC(=O)/C(C)=C/[C@H](C)[C@@H](O)/C(C)=C/[C@H](C)[C@H](O)/C(C)=C\[C@@H]1C
inactive: MCF7 | Caco-2

— ChEMBL document CHEMBL2046391, “Calyxamides A and B, cytotoxic cyclic peptides from the marine sponge Discodermia calyx” (J Nat Prod, 2012)
